Source: patent US5710174A, “Factor XIIIA inhibitor” (Zymo Genetics, Inc., priority 1995, dated 1998)
pIC50: −log10 of the molar value. Where two headings read alike, the source gives them in different places.

Key:
[1] = molecular target: T1, tissue transglutaminase (tTG) (Cavia cutleri, UniProt P08587); experiment: tTG screening assay; type: biochemical
T1 construct: purchased Sigma
T1 sequence (P08587 1-690): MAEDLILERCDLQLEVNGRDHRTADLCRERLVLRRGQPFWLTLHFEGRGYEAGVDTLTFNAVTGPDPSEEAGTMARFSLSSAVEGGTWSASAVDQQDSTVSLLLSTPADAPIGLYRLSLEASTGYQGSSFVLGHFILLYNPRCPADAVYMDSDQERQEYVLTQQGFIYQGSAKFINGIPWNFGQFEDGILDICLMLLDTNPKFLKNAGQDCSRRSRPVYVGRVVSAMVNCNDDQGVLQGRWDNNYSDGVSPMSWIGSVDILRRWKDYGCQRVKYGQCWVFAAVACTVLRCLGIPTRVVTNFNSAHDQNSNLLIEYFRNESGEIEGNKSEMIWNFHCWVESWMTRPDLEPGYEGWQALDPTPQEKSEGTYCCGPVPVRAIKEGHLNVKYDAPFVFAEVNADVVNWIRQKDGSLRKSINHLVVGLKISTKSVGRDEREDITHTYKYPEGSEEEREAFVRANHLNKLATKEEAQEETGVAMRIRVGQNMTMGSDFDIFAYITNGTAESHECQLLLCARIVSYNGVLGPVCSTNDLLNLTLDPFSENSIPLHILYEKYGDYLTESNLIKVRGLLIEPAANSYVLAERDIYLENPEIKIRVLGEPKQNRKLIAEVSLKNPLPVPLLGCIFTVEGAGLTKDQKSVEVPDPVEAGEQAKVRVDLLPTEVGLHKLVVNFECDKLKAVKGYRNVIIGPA
Source text: Because FXIII is a member of the tissue transglutaminase (tTG) family, all potential FXIIIa inhibitors identified in the primary FXIIIa screening assay were further screened for tTG (non-FXIII-specific) inhibitory activity. The tTG screening assay was identical to the primary FXIIIa screening assay, except that tTG (Sigma) was used instead of FXIIIa and no thrombin or PPACK was used.
The determination of IC50 values was done the same as in the primary FXIIIa screening assay, except that purified compounds were used at varying concentrations (instead of crude culture extracts). The IC50 values allow one to make comparisons of one compound to another.

[2] = molecular target: T2, FXIIIa (Homo sapiens, UniProt P00488); experiment: Primary FXIIIa screening assay (cross-linking of biotinylated fibrinogen and immobilized fibronectin); type: biochemical
T2 sequence (P00488 39-732 limits assumed): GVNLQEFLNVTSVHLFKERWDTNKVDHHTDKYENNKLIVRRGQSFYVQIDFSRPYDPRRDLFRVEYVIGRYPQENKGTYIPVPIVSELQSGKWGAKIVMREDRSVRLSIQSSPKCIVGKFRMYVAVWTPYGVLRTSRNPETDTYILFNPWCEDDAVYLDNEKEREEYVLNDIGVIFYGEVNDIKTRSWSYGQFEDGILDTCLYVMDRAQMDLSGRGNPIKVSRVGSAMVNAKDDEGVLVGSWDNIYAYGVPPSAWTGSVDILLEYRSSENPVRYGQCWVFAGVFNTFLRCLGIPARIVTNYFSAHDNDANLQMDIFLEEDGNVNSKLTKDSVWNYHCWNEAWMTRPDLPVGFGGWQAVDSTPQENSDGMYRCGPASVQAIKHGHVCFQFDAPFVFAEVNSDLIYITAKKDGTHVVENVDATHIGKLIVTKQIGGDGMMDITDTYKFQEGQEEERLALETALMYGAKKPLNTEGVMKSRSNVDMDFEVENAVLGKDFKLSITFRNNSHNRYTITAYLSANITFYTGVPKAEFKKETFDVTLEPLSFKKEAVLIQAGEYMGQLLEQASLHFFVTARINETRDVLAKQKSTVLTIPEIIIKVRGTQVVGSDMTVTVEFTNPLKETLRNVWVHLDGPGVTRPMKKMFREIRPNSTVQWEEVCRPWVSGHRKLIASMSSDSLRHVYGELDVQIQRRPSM
Protocol: The primary FXIIIa screening assay used a 96-well high throughput assay format. This assay assesses test sample inhibition of FXIIIa catalyzed cross-linking of biotinylated fibrinogen and immobilized fibronectin.
Test samples (possibly containing FXIIIa inhibitors) were added to 96-well plates coated with fibronectin, followed by the addition of FXIIIa, as described in the primary FXIIIa screening assay, below. Biotinylated fibrinogen was added to the wells, and streptavidin-alkaline phosphatase was used to detect biotinylated fibrinogen that had been cross-linked to fibronectin.
Purified fibronectin was diluted to 1 μg/ml in 0.1M Na2 CO3, pH 9.7, and added to control and test assay wells of 96-well plates at 100 μl/well. All wells were incubated overnight at 4° C.
After incubation, the plate wells were washed twice with 200 μl/well of wash buffer per wash to remove all fibronectin not bound to the wells. The wash buffer contained 0.135M NaCl, 2.7 mM KCl, 25 mM Tris at about pH 7.4, and 0.1% Tween 20® (Sigma Chemical Co., St. Louis, Mo.; polyoxyethylenesorbitan monolaurate). The plate wells were then blocked with 200 μl/well blocking buffer and incubated for 1-2 h at 37° C. The blocking buffer contained 0.135M NaCl, 2.7 mM KCl, 25 mM Tris at about pH 7.4, 0.1% Tween 20®, and 0.5% BSA (bovine serum albumin, Sigma fraction V; Sigma). After incubation, the plates wells were again washed with 200 μl/well of wash buffer to remove excess blocking buffer.
Briefly, fibrinogen was dialyzed against 0.1M NaHCO3, pH 8.5 (coupling buffer) at a concentration of 1 mg/ml. BNHS was dissolved in dimethylformamide at a concentration of 1.7 mg/ml, and added to fibrinogen in coupling buffer at a ratio of 30 μl BNHS to 1 ml fibrinogen. The mixture was incubated with rocking for 4 h at room temperature, dialyzed against PBS, and stored in aliquots at -80° C.
Biotinylated fibrinogen (40 μl of 20 μg/ml solution) was added to each plate well. Except in control wells (which received 10 μl of 10% DMSO alone), 10 μl of each of the 11,198 crude extracts in 10% DMSO were added to duplicate wells after the addition of biotinylated fibrinogen, resulting in a 1% final assay concentration of DMSO.
FXIIIa (recombinant human FXIIIa2 (ZymoGenetics), as described in European Patent No. 0 268 772, granted Apr. 26, 1995, and incorporated herein by reference) was diluted to 100 μg/ml in a solution of 50 mM Tris, 5 mM CaCl2 at pH 7.4 containing 1 unit/ml thrombin (bovine; Enzyme Research Labs) and incubated for 20 min at 37° C. FXIIIa then was diluted to 1 μg/ml in a cross-linking buffer consisting of the blocking buffer described above plus 20 mM CaCl2 and 75 ng/ml D-phenylalanyl-L-prolyl-L-arginine chloromethyl ketone (PPACK; Calbiochem, La Jolla, Calif.). Fifty microliters of FXIIIa in cross-linking buffer was added to each test and control well. All wells then were incubated for about 10 min at 37° C.
After incubation, the wells were washed twice with 200 μl/well of wash buffer to remove all biotinylated fibrinogen that was not cross-linked to fibronectin.

[3] = tested on: plasma clots; experiment: Plasma clot lysis assay; set-up: species or system human; details: 100 μM; for % Plasma Clot lysis: clots formed about 20 h, plasminogen and urokinase about 4 h
Protocol: For this assay, 50 μl of one of a series of concentrations of iodoacetic acid, cerulenin, or ZG-1400a was added to 0.5 ml human citrated plasma (prepared from one blood donor) in 5 ml polypropylene tubes. The ZG-1400a and iodoacetic acid were individually prepared in 10% DMSO and tested using half-log dilutions, starting at a final assay concentration of 100 μM and diluting to 10 μM. Cerulenin was prepared in 10% ethanol and tested using half-log dilutions, starting at a final assay concentration of 100 μM and diluting to 10 μM.
Approximately 10^6 cpm ^125 I-fibrinogen (Amersham), 50 mM CaCl2 (20 mM above citrate concentration) and 5 units thrombin (bovine, Enzyme Research Labs) were added to each test and control tube. The tubes were incubated while rocking for 20 h at 37° C. Plasma clots formed in the tubes were washed three times with about 1 ml phosphate buffered saline (PBS). The plasma clots in each tube were counted after the PBS washes.
Approximately 2 ml of 50 mM Tris, pH 7.4, containing 50 mM NaCl, 28 μg plasminogen (human, Calbiochem), and 280 ng urokinase (human, Calbiochem) were added to the clots in test and control tubes. At 1, 2, and 4 h intervals, 25 μl aliquots of the samples were removed from each tube and counted.
The values shown in Table 3 represent the amount of lysis after plasma clots were formed for about 20 h and exposed to plasminogen and urokinase for about 4 h.

[4] = tested on: Factor Xa (FXa); experiment: Factor Xa inhibition assay; type: biochemical; details: up to 100 μM, absorbance at 405 nm
Protocol: For the FVIIa, FXa and thrombin inhibition assays described below, an inhibition assay buffer containing 50 mM Tris, 5 mM CaCl2, 150 mM NaCl, 0.1% Tween 20, and 0.1% BSA (albumin, bovine, Sigma fraction V (Sigma)) at about pH 8.0 was used 2. For each of the inhibition assays, the total reaction volume was 100 μl and the assays were performed in 96-well plates.
About 30 μl inhibition assay buffer, 50 μl of 10 nM FXa and 10 μl of one of a series of dilutions of ZG-1400a were added to plate wells. The ZG-1400a was prepared in 10% DMSO and tested using half-log dilutions, starting at a final assay concentration of 100 μM and diluting to 1 nM. A negative (no inhibition) control contained 30 μl inhibition assay buffer, 50 μl of 10 nM FXa, and enough DMSO to give a 1% final DMSO concentration.
The test and control wells were incubated for about 10 min at room temperature. After the incubation period, 10 mM N-α-benzyloxycarbonyl-D-arginine-L-glycyl-L-arginyl-p-nitroanilide-dihydrochloride (S2765 substrate, Kabi) was added to each well.
This determination was made by reading absorbance at 405 nm on a ThermoMax microplate reader.

[5] = purified compound, read-out: IC50 tTG Screen
[6] = purified compound, read-out: IC50 FXIIIa Primary Screen

NC(=O)CI [Iodoacetamide, iodoacetamide]
pIC50 [1]: 5.00 | pIC50 [2]: 3.49

CC=CCC=CCCC(=O)C1OC1C(N)=O (centres unmarked) [Cerulenin, 2,3-epoxy-4-oxo-7,10-dodecadienamide]
susceptibility of plasma clots to lysis by plasminogen and urokinase [3]: significantly more susceptible to lysis | % Plasma Clot lysis [3]: 97% | pIC50 [1, 5]: 4.60 | pIC50 [2, 6]: 4.54

C[C@@H]1CCC/C=C\C(=O)Cc2cc(O)cc(O)c2C(=O)O1 [ZG-1400, R(-) enantiomer of cis-resorcylide]
inhibition of FXa activity [4]: not even the highest concentration of ZG-1400a assayed (100 μM) inhibited FXa activity | susceptibility of plasma clots to lysis by plasminogen and urokinase [3]: significantly more susceptible to lysis | % Plasma Clot lysis [3]: 46% | inhibition of tTG ([1]; 0.01X concentration): about 95% | inhibition of tTG ([1]; 0.1X concentration): about 70% | pIC50 [1, 5]: 5.51 | inhibition of FXIIIa ([2]; 0.01X concentration): about 65% | pIC50 [2, 6]: 5.24
